Results as given in US20240285649A1, “PROGESTOGEN FORMULATIONS FOR USE IN MODULATING A CYTOKINE STORM MEDIATOR” (Shenzhen Evergreen Therapeutics Co., Ltd, priority 2020, published 2024).

Assays:
[1] = system: smoke exposure-induced COPD rats; assay: Pharmacodynamic study of 17-HPC inhalation in smoke exposure-induced COPD rats (lung function, BALF differential count, HE staining, body weight); format: in vivo, Wistar rats; details: for weight increase: at 24 weeks
Description: (§1) Seventy-two Wistar rats were randomly divided into the blank control group, model group, 17-HPC (0.5 mg/ml, 0.25 mg/ml and 0.1 mg/ml) groups, BUD (0.5 mg/ml and 0.1 mg/ml) groups, and combination treatment (0.5 mg/ml BUD+0.25 mg/ml 17-HPC and 0.1 mg/ml BUD+0.25 mg/ml 17-HPC) groups. Drug concentration is the nebulized solution concentration. Lung function (forced vital capacity) of rats was measured using the small animal spirometer, and differential count in the BALF was determined under the microscope. Serum and BALF cytokine (IL-6, IL-17, TNF-α and IL-β) levels were measured by ELISA. Inflammatory cell infiltration area and MLI in rat lung tissues were determined by HE staining.

[2] = system: IL-6, IL-17, TNF-α and IL-1β; assay: Serum and BALF cytokine levels by ELISA in COPD rats; format: in vivo, Wistar rats; details: aside from the low dose (0.1 mg/ml) 17-HPC group
Description: as §1, with “To examine the in vitro and in vivo efficacy of 17-HPC inhalation in chronic obstructive pulmonary disease (COPD) rats, a rat model of COPD was established by exposing Wistar rats to CS for 1 hour every day for a total of 180 days. Seventy-two” for “Seventy-two”

Sprague-Dawley rats = assay: Seven-day inhalation toxicity study in rats (GLP); format: in vivo
Description: A 7-day inhalation toxicity study in rats was conducted under GLP conditions. In this study, aerosolized 17-HPC was administered to Sprague-Dawley rats (10/sex/group) at 8, 24, and 72 mg/kg/day for 7 consecutive days. A control group of rats was dosed with aerosolized vehicle. Animals were observed daily for clinical signs. Body weight and food consumption were recorded at pretest, and then on Days 1, 4, and 7. In order to evaluate reversibility of 17-HPC treatment, a satellite rat group (5/sex/group) was dosed by inhalation at 72 mg/kg/day for 7 days, and then was sacrificed on Day 14. Except for the rats in the satellite group, all animals were sacrificed on Day 8. Hematology and biochemistry examinations were performed at the end of the study. Organ weight, gross pathology, and histopathology evaluations were performed.

[3] = PK of PR2005 formulations (oral gavage, capsule, IM) in female dogs, relative bioavailability vs MAKENA; format: in vivo; details: 750 mg compared to 250 mg
From the text: This study determined the pharmacokinetic parameters of the test drug PR2005 (also referred to herein as 17-HPC) in different formulations after oral gavage or capsule administrations in dogs. This study further determined the relative bioavailability of the test drug PR2005 in each formulation, compared to intramuscular injection solution (MAKENA®).
PK parameters were estimated, including maximum plasma drug concentration (Cmax), time to reach Cmax (Tmax), time delay in absorption process (Tlag), area under the plasma concentration-time curve from time 0 to the last quantifiable data point (AUClast), area under the plasma concentration-time curve from time zero to infinity (AUCinf), plasma half-life (t1/2) and apparent plasma clearance (CL/F), apparent volume of distribution (Vz/F). All these parameters were computed using standard non-compartmental methods of analysis. […] Plasma PR2005 PK data was analyzed in Phoenix WinNonLin 8.1 (Certara USA, Inc.).
Log-transformed values of AUCinf were analyzed using a linear mixed-effects model. […] After back transformation from the log scale, estimates of geometric LSM and 90% CI for the ratio of means were calculated. Relative bioavailability (Fr %) was calculated as the ratio of dose normalized geometric least square mean (LSM) for test formulation and IM solution: […]

[4] = biological target: ABCB1 efflux transporters (Homo sapiens, UniProt P08183); details: literature (Bloise et al. 2016); cited from earlier work
Sequence of ABCB1 efflux transporters (P08183 whole entry): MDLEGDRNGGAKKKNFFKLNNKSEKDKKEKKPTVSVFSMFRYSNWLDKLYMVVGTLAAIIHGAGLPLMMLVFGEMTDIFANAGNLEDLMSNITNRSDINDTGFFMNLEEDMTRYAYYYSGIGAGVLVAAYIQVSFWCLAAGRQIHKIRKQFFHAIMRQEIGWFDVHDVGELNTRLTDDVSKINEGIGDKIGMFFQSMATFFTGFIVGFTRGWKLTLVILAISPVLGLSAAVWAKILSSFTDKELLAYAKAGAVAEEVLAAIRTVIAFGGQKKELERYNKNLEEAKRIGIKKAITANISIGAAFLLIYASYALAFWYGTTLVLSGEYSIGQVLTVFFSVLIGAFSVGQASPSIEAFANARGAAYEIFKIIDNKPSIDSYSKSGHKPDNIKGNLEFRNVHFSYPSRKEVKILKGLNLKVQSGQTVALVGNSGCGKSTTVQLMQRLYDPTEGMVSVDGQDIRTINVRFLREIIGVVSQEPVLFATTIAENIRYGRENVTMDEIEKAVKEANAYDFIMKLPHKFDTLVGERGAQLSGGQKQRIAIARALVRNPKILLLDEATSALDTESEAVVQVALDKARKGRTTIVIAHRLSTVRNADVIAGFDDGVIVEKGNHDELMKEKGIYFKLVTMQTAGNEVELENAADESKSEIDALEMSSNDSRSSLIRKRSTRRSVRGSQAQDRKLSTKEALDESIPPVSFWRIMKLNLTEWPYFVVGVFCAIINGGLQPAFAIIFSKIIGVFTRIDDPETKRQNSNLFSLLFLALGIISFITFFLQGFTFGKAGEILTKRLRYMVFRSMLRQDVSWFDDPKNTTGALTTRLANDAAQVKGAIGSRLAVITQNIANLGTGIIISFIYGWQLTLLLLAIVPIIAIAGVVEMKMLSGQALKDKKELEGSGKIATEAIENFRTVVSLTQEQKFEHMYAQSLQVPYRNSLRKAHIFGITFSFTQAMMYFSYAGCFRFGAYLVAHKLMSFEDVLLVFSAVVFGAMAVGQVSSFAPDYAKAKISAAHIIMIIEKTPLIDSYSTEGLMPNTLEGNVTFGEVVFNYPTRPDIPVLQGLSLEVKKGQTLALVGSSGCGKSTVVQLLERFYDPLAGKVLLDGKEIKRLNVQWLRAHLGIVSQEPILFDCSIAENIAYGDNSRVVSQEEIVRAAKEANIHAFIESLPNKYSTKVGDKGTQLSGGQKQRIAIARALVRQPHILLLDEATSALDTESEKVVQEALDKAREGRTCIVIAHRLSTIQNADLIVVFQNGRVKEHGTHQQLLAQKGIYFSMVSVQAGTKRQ

CCCCCC(=O)O[C@]1(C(C)=O)CC[C@H]2[C@@H]3CCC4=CC(=O)CC[C@]4(C)[C@H]3CC[C@@]21C [Solution 17-HPC, 17-[(1-Oxohexyl)oxyl]-pregn-4-ene-3,20-dione]
weight increase ([1]; vs model group): no difference in weight increase between the 17-HPC groups and the model group
MLI ([1]; lung tissue, HE staining): decreased in the other 17-HPC groups and BUD groups in a dose-dependent manner
inflammatory cell infiltration in lung tissues (HE staining) ([1]; nebulized inhalation): attenuated in the 17-HPC groups
percentage of neutrophils in rat BALF ([1]; nebulized inhalation): reduced the percentage of neutrophils in rat BALF
FEV0.2/FVC % ([1]; nebulized inhalation, vs model group, after 24 weeks of CS exposure): improved FEV0.2/FVC % in a dose-dependent manner
TNF-α, IL-1β, IL-6 and IL-17 levels in the BALF [2]: can downregulate TNF-α, IL-1β, IL-6 and IL-17 levels in the BALF
clinical signs and body weight change (Sprague-Dawley rats; 8 mg/kg/day group, inhalation 7 days, preliminary): no clinical signs and body weight change were observed
Hematological and biochemical parameters (Sprague-Dawley rats; 8 mg/kg/day vs vehicle, preliminary): comparable between the animals treated with vehicle and 17-HPC at 8 mg/kg/day
organ weights, necropsy and histopathology (Sprague-Dawley rats; 8 mg/kg/day, preliminary): Significant changes in organ weights, necropsy and histopathology were not recorded
NOAEL relative to proposed initial clinical dose (300 μg) based on body surface areas (Sprague-Dawley rats; rat NOAEL 48 mg/m^2/day vs 222 μg/m^2/day): approximately 216 times
no observed adverse effect level (NOAEL), body surface (Sprague-Dawley rats; rats, inhalation, 7 consecutive days): 48 mg/m^2/day
pathological alterations after 7-day recovery period (Sprague-Dawley rats; satellite group, 72 mg/kg/day for 7 days, sacrificed Day 14): no remarkable pathological alterations in any animals from the satellite group
dose proportionality of Cmax and AUC [3]: generally greater than dose proportional
efflux transporter substrate [4]: substrate of ABCB1 efflux transporters

CCCC1O[C@@H]2C[C@H]3[C@@H]4CCC5=CC(=O)C=C[C@]5(C)[C@H]4[C@@H](O)C[C@]3(C)[C@]2(C(=O)CO)O1 (stereo partly drawn) [BUD, budesonide]
weight increase ([1]; vs model group): inhibited weight increase
